This is an account of results in patent US5601800A, “New multifunctional ligands for potential use in the design therapeutic or diagnostic radiopharmaceutical imaging agents” (Curators of the University of Missouri, priority 1994, dated 1997).

The structures appear in SMILES notation.

The nature of the series: water solubility. Type of series: physicochemical.

Consider `CCCCP(=N)(CCCC)CCCC` [tributylphosphinimine], for which the solubility in water result is given as “soluble in water”.
